Experimental data: ChEMBL document CHEMBL5055675, “Apoptosis Inducing 1,3,4-Oxadiazole Conjugates of Capsaicin: Their In Vitro Antiproliferative and In Silico Studies” (ACS Med Chem Lett, 2021)
The source made the active and inactive calls. The calls are words filed in the database; no cut-off is given here.

Tests used:
[1] = tested on: NCI-H460; test: Cell cycle arrest in human NCI-H460 cells assessed as accumulation of cells in G1 phase at 10 uM measured after 72 hrs by propidium iodide/RNase staining based flow cytometry analysis (Rvb= 62.9%); type: functional
[2] = tested on: NCI-H460; test: Induction of apoptosis in human NCI-H460 cells assessed as decrease in pro-PARP expression level at 1 to 20 uM measured after 72 hrs by western blot analysis; type: functional, cell-based; conditions: dose 1-20 µM
[3] = tested on: NCI-H460; test: Effect on p53 expression in human NCI-H460 cells at 1 to 20 uM measured after 72 hrs by western blot analysis; type: functional, cell-based; conditions: dose 1-20 µM
[4] = molecular target: MAP kinase p38 (Homo sapiens) (UniProt O15264+Q15759+Q16539+P53778); test: Inhibition of p38 MAPK phosphorylation in human NCI-H460 cells at 20 uM measured after 72 hrs by western blot analysis; type: cell-based
[5] = tested on: NCI-H460; test: Induction of apoptosis in human NCI-H460 cells assessed as late apoptotic cells at 5 uM measured after 72 hrs by Annexin V-FITC and propidium iodide staining based flow cytometry analysis (Rvb= 6.93%); type: functional
[6] = tested on: NCI-H460; test: Antimigratory activity against human NCI-H460 cells assessed as reduction in vimentin expression level at 1 to 20 uM measured after 72 hrs by western blot analysis; type: functional, cell-based; conditions: dose 1-20 µM
[7] = tested on: NCI-H460; test: Cell cycle arrest in human NCI-H460 cells assessed as accumulation of cells in S phase at 20 uM measured after 72 hrs by propidium iodide/RNase staining based flow cytometry analysis (Rvb= 26.87%); type: functional
[8] = tested on: NCI-H460; test: Inhibition of colony formation in human NCI-H460 cells assessed as reduction in colony formation incubated for 15 days and subsequent media replacement with compound for every 72 hrs by crystal violet staining based assay; type: functional, cell-based; conditions: dose 5-20 µM, time 15.0 day
[9] = tested on: NCI-H460; test: Cell cycle arrest in human NCI-H460 cells assessed as accumulation of cells in S phase at 5 uM measured after 72 hrs by propidium iodide/RNase staining based flow cytometry analysis (Rvb= 26.87%); type: functional
[10] = tested on: NCI-H460; test: Effect on total ERK expression in human NCI-H460 cells at 1 to 20 uM measured after 72 hrs by western blot analysis; type: functional, cell-based; conditions: dose 1-20 µM
[11] = tested on: PNT2; test: Cytotoxicity against human PNT2 cells assessed as reduction in cell viability at 4 times IC50 measured after 72 hrs by crystal violet staining based assay; conditions: pnt2, 72 h
[12] = tested on: NCI-H460; test: Cell cycle arrest in human NCI-H460 cells assessed as accumulation of cells in S phase at 10 uM measured after 72 hrs by propidium iodide/RNase staining based flow cytometry analysis (Rvb= 26.87%); type: functional
[13] = tested on: NCI-H460; test: Inhibition of ERK phosphorylation in human NCI-H460 cells at 20 uM measured after 72 hrs by western blot analysis; type: cell-based
[14] = tested on: NCI-H460; test: Induction of apoptosis in human NCI-H460 cells assessed as late apoptotic cells at 20 uM measured after 72 hrs by Annexin V-FITC and propidium iodide staining based flow cytometry analysis (Rvb= 6.93%); type: functional
[15] = tested on: NCI-H460; test: Antimigratory activity against human NCI-H460 cells assessed as inhibition of cell migration measured after 24 hrs by wound healing assay; type: functional, cell-based; conditions: dose 5-20 µM

For `COc1cc(CNC(=O)CCCC/C=C/C(C)C)ccc1OCc1nnc(Nc2ccc([N+](=O)[O-])cc2)o1`, the Activity [1] was 59.13%, the Activity [2] was “Active” and the Activity [3] was “inactive”. For the same compound, the inhibition [4] was “Active”, the Activity [5] was 8.07% and the Activity [6] was “inactive”. For the same compound, the Activity [7] was 34.83%, the inhibition [8] was “Dose-dependent effect” and the Activity [9] was 28.16%. For the same compound, the Activity [10] was “inactive”, the Activity [11] was “Non-Toxic” and the Activity [12] was 29.05%. For the same compound, the inhibition [13] was “Active”, the Activity [14] was 17.44% and the Activity [15] was “Dose-dependent effect”.
